Assays:
[1] = target: PI3Kγ (p110γ) Recombinant Human Protein (Homo sapiens (Human), UniProt P48736); assay: PI3K-γ scintillation proximity assay; type: biochemical; conditions: 2 μM ATP, 20 μM PIP2
[2] = target: PI3Kδ (p110δ/p85α) Recombinant Human Protein (Homo sapiens (Human), UniProt O00329); assay: PI3Kδ scintillation proximity assay; type: biochemical; conditions: 2 μM ATP, 20 μM PIP2
[3] = tested on: Phosphorylated Ribosomal Protein S6 (RPS6) in THP-1 cells; assay: THP-1 RPS6 ELISA assay; type: cell-based, human; conditions: Homo sapiens, THP-1, THP-1 cells, 10 nM MCP-1; read-out: PI3Kγ_THP1_RPS6_ELISA IC50

Sequence of PI3Kδ (p110δ/p85α) Recombinant Human Protein (O00329 whole entry): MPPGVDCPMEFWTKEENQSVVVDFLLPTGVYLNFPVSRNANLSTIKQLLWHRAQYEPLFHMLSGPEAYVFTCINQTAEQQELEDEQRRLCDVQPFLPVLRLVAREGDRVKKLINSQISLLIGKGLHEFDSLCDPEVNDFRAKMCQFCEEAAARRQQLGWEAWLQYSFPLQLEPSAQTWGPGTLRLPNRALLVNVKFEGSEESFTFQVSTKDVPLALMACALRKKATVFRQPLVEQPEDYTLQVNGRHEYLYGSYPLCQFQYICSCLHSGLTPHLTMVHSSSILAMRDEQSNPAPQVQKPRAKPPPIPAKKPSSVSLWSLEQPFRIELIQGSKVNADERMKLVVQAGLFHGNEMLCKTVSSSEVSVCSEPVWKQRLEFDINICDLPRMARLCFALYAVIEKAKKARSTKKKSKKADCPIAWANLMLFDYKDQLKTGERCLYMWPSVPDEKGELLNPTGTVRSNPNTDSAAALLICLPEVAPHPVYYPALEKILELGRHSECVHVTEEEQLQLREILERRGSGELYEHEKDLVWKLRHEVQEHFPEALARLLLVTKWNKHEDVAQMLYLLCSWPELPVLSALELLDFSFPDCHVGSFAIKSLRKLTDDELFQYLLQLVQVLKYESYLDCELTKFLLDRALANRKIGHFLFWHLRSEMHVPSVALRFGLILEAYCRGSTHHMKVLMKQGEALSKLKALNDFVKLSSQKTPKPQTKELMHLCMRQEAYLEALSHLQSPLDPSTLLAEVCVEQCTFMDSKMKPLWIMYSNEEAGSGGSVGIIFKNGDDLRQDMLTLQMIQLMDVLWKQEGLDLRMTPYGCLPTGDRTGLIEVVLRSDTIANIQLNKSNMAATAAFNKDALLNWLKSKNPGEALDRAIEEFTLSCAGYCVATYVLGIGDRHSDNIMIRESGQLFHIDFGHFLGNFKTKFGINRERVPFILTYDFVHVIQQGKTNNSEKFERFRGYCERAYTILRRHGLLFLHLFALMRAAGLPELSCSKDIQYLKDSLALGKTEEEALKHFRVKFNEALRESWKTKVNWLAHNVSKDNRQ
Sequence of PI3Kδ (p110δ/p85α) Recombinant Human Protein (P27986 whole entry partner): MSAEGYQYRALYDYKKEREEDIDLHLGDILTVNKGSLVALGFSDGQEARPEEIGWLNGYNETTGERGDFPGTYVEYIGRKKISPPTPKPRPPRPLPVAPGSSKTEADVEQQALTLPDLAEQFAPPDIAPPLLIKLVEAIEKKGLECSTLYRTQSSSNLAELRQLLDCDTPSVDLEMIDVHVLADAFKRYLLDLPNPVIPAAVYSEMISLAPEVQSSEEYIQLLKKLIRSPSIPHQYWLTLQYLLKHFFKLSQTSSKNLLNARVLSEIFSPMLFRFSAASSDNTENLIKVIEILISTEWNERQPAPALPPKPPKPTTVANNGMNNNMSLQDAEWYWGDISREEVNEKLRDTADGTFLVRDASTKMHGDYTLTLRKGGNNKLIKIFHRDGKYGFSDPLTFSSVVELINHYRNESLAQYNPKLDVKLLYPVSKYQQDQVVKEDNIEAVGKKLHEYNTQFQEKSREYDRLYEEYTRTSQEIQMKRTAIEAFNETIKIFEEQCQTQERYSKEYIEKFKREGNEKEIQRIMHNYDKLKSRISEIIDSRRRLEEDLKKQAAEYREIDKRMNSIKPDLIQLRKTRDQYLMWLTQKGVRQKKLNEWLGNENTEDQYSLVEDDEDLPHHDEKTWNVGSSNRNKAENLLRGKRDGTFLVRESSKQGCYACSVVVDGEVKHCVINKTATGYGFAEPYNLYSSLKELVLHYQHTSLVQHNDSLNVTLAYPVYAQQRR
Sequence of PI3Kγ (p110γ) Recombinant Human Protein (P48736 whole entry): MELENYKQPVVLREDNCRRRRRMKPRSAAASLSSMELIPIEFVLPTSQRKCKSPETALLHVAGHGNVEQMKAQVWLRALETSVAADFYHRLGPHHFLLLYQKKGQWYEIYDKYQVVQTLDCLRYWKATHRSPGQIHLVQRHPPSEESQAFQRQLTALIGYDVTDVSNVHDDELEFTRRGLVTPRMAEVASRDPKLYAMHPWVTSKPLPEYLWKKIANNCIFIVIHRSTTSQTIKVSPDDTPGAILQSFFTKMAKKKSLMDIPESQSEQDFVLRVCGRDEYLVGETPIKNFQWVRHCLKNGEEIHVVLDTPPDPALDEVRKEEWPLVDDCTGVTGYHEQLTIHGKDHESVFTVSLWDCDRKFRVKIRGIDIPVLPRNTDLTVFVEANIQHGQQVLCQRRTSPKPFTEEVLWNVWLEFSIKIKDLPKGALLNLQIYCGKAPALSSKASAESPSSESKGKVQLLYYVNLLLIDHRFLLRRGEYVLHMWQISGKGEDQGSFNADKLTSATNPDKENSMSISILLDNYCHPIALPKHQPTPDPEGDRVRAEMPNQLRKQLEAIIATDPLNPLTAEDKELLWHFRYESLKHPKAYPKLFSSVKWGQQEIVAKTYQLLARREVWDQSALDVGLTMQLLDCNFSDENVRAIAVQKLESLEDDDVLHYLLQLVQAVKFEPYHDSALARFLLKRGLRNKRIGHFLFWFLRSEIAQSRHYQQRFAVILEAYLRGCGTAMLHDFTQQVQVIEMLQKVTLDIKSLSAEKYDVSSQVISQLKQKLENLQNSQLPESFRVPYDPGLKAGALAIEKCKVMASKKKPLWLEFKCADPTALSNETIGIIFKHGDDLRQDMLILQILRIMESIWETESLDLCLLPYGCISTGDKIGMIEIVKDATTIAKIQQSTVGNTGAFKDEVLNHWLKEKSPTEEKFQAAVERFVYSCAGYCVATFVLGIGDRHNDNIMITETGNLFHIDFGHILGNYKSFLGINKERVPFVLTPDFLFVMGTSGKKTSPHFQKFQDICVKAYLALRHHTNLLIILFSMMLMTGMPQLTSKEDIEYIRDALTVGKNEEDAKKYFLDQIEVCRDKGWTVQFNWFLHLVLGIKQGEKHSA

IC50 [1] [µM] | IC50 [2] [µM] | IC50 [3] [µM] | SMILES
< 0.1 | < 0.5 | < 1 | CC(NC(=O)c1c(N)nn2cccnc12)c1cc(Cl)c2cncn2c1N1CCC[C@H]1C (stereo partly drawn) [Example 71A, 2-Amino-N-(1-{8-chloro-5-[(2R)-2-methylpyrrolidin-1-yl]imidazo[1,5-a]pyridin-6-yl}ethyl)pyrazolo[1,5-a]pyrimidine-3-carboxamide bistrifluoroacetate]
< 0.1 | < 0.1 | < 0.5 | CC(NC(=O)c1c(N)nn2cccnc12)c1cc(Cl)c2cncn2c1N1CCC[C@@H]1C (stereo partly drawn) [Example 71B, 2-Amino-N-(1-{8-chloro-5-[(2S)-2-methylpyrrolidin-1-yl]imidazo[1,5-a]pyridin-6-yl}ethyl)pyrazolo[1,5-a]pyrimidine-3-carboxamide bistrifluoroacetate]
< 0.1 | < 0.1 | < 0.5 | CC(NC(=O)c1c(N)nn2cccnc12)c1cc(Cl)c2cncn2c1N1CCCC[C@H]1C (stereo partly drawn) [Example 72A, 2-Amino-N-{1-[8-chloro-5-[(2R)-2-methylpiperidin-1-yl)imidazo[1,5-a]pyridin-6-yl]ethyl}pyrazolo[1,5-a]pyrimidine-3-carboxamide bistrifluoroacetate]
< 0.1 | < 0.1 | < 0.5 | CC(NC(=O)c1c(N)nn2cccnc12)c1cc(Cl)c2cncn2c1N1CCCC[C@@H]1C (stereo partly drawn) [Example 72B, 2-Amino-N-{1-[8-chloro-5-[(2S)-2-methylpiperidin-1-yl)imidazo[1,5-a]pyridin-6-yl]ethyl}pyrazolo[1,5-a]pyrimidine-3-carboxamide bistrifluoroacetate]

Second part, the compound before the results:

SMILES | IC50 [1] [µM] | IC50 [2] [µM] | IC50 [3] [µM]
CC(NC(=O)c1c(N)nn2cccnc12)c1cc(Cl)c2cncn2c1N1CCC(F)(F)CC1 (stereo not drawn) [Example 65, 2-Amino-N-{1-[8-chloro-5-(4,4-difluoropiperidin-1-yl)imidazo[1,5-a]pyridin-6-yl]ethyl}pyrazolo[1,5-a]pyrimidine-3-carboxamide bistrifluoroacetate] | < 0.1 | < 0.1 | < 0.5
CC(NC(=O)c1c(N)nn2cccnc12)c1cc(Cl)c2cncn2c1N1CCC(F)CC1 (stereo not drawn) [Example 66, 2-Amino-N-{1-[8-chloro-5-(4-fluoropiperidin-1-yl)imidazo[1,5-a]pyridin-6-yl]ethyl}pyrazolo[1,5-a]pyrimidine-3-carboxamide bistrifluoroacetate] | < 0.1 | < 0.1 | < 0.5
CC(NC(=O)c1c(N)nn2cccnc12)c1cc(Cl)c2cncn2c1N1CCCC(F)(F)C1 (stereo not drawn) [Example 67, 2-Amino-N-{1-[8-chloro-5-(3,3-difluoropiperidin-1-yl)imidazo[1,5-a]pyridin-6-yl]ethyl}pyrazolo[1,5-a]pyrimidine-3-carboxamide bis trifluroacetate] | < 0.1 | < 0.1 | < 0.5
CC(NC(=O)c1c(N)nn2cccnc12)c1cc(Cl)c2cncn2c1N1CCC(F)(F)C1 (stereo not drawn) [Example 68, 2-Amino-N-{1-[8-chloro-5-(3,3-difluoropyrrolidin-1-yl)imidazo[1,5-a]pyridin-6-yl]ethyl}pyrazolo[1,5-a]pyrimidine-3-carboxamide bistrifluoroacetate] | < 0.1 | < 0.1 | < 0.5
CC1CCN(c2c(C(C)NC(=O)c3c(N)nn4cccnc34)cc(Cl)c3cncn23)CC1 (stereo not drawn) [Example 69, 2-Amino-N-{1-[8-chloro-5-(4-methylpiperidin-1-yl)imidazo[1,5-a]pyridin-6-yl]ethyl}pyrazolo[1,5-a]pyrimidine-3-carboxamide bistrifluoroacetate] | < 0.1 | < 0.5 | < 1
CC(NC(=O)c1c(N)nn2cccnc12)c1cc(Cl)c2cncn2c1N1CCCC1(C)C (stereo not drawn) [Example 70, 2-Amino-N-{1-[8-chloro-5-(2,2-dimethylpyrrolidin-1-yl)imidazo[1,5-a]pyridin-6-yl]ethyl}pyrazolo[1,5-a]pyrimidine-3-carboxamide bistrifluoroacetate] | < 0.1 | < 0.1 | < 0.5

Reference: patent US10065963B2 (Incyte Corporation, priority 2015, dated 2018)
